From patent publication US11000033B2, “Ketone or oxime compound, and herbicide” (NISSAN CHEMICAL CORPORATION, priority 2014, dated 2021)

What was measured:
Format in all cases: in vivo
Amaranthus retroflexus = assay: Test Example 5: herbicidal effect by foliage application, plastic box (symbol N); settings: 320 g/ha, 3 weeks after application
Summary of the method: (§1)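 Sowing in sterilized diluvial soil, 14 days' greenhouse growth at 25° C. to 30° C., then uniform small-sprayer foliar application of aqueous emulsion dilution; plants scored three weeks afterwards.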

wheat = assay: Test Example 4: effect on crop by soil treatment (symbol e); settings: application herbicide amount 320 g/ha
Summary of the method: (§2)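 Steps: fill box with sterilized diluvial soil; sow seed spot-like; cover with ~1.5 cm soil; grow in greenhouse (25° C. to 30° C.).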

Lolium multiflorum Lam. = assay: Test Example 5: herbicidal effect by foliage application, plastic box (symbol K); settings: 320 g/ha, 3 weeks after application
Summary of the method: as §1

Apera spica-venti [1] = assay: Test Example 4: herbicidal effect by soil treatment (symbol L); settings: application herbicide amount 320 g/ha
Summary of the method: (§3)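 Seeds were sown in sterilized diluvial soil, covered with about 1.5 cm of soil, and the soil surface was sprayed with a water-diluted emulsion of the compound at a predetermined rate. Plants grew in a greenhouse at 25° C. to 30° C.; effects were scored visually 3 weeks after application.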

Apera spica-venti [2] = assay: Test Example 5: herbicidal effect by foliage application, plastic box (symbol L); settings: 320 g/ha, 3 weeks after application
Summary of the method: as §1

Avena fatua = assay: Test Example 5: herbicidal effect by foliage application, plastic box (symbol I); settings: 320 g/ha, 3 weeks after application
Summary of the method: as §1

corn = assay: Test Example 4: effect on crop by soil treatment (symbol c); settings: application herbicide amount 320 g/ha
Summary of the method: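 The test used sterilized diluvial soil. Seed was set down in spots and overlaid with about 1.5 cm of soil before growth in a greenhouse kept at 25° C. to 30° C.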

Veronica persica = assay: Test Example 4: herbicidal effect by soil treatment (symbol R); settings: application herbicide amount 320 g/ha
Summary of the method: as §3

[3] = tested on: Echinochloa crus-galli var. crus-galli; assay: Test Example 5: herbicidal effect by foliage application, plastic box (symbol H); settings: 320 g/ha, 3 weeks after application
Summary of the method: as §1

beet = assay: Test Example 5: effect on crop by foliage application, plastic box (symbol f); settings: 320 g/ha, 3 weeks after application
Summary of the method: (§4)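 Plants were raised from seed in a greenhouse (25° C. to 30° C.) after sowing in a plastic box of sterilized diluvial soil.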

soybean = assay: Test Example 4: effect on crop by soil treatment (symbol d); settings: application herbicide amount 320 g/ha
Summary of the method: as §2

rapeseed = assay: Test Example 5: effect on crop by foliage application, plastic box (symbol g); settings: 320 g/ha, 3 weeks after application
Summary of the method: as §4

[4] = tested on: Echinochloa crus-galli var. crus-galli; assay: Test Example 3: herbicidal effect by foliage application, Wagner pot (symbol H); settings: application herbicide amount 320 g/ha
Summary of the method: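 The compound, formulated as an emulsion and diluted with water to a predetermined rate, is applied uniformly to leaves of two-week-old seedlings growing in submerged alluvial soil at 25–30 °C. Rice is included. Each plant is assessed 3 weeks later using defined criteria.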

Stellaria media = assay: Test Example 4: herbicidal effect by soil treatment (symbol P); settings: application herbicide amount 320 g/ha
Summary of the method: as §3

Scirpus juncoides = assay: Test Example 2: herbicidal activity, application during weed generation in submerged conditions (symbol B); settings: Table 23; application herbicide amount 320 g/ha; grade 0-5 by criteria of Test Example 1
Summary of the method: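 Treatment timing was the one- to two-leaf stage, with diluted emulsifiable compound dropped onto the paddy water (depth 4 cm) over alluvial soil. All three species grew from a mixed sowing in a 25° C. to 30° C. greenhouse. Injury was judged by eye 3 weeks on.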

Galium spurium = assay: Test Example 4: herbicidal effect by soil treatment (symbol Q); settings: application herbicide amount 320 g/ha
Summary of the method: as §3

Which “N: Amaranthus retroflexus, herbicidal effect grade” value (shortened to “N: Amaranthus retroflexus”) (Amaranthus retroflexus) does the source give for `CON=CC1CC(O)=C(c2c(C)cc(C)cc2C)C1=O` (mixture of isomers) [3-001] here?
The value was 0 (Herbicidal ratio of 5% or lower (almost no effect)).

What about the “e: wheat, effect on crop grade” value (wheat) of the same compound?
The value was 0 (Herbicidal ratio of 5% or lower (almost no effect)).

What about the “K: Lolium multiflorum Lam., herbicidal effect grade” value (Lolium multiflorum Lam.) of the same compound?
The value was 4 (Herbicidal ratio of 70% or higher and lower than 90%).

And the “L: Apera spica-venti, herbicidal effect grade” value (“L: Apera spica-venti” for short) (Apera spica-venti [1])?
The value was 5 (Herbicidal ratio of 90% or more (almost completely withered)).

And the “L: Apera spica-venti” value (Apera spica-venti [2])?
The value was 3 (Herbicidal ratio of 40% or higher and lower than 70%).

And the “I: Avena fatua, herbicidal effect grade” value (Avena fatua)?
Its value is 2 (Herbicidal ratio of 20% or higher and lower than 40%).

And the “c: corn, effect on crop grade” value (corn)?
Its value is 0 (Herbicidal ratio of 5% or lower (almost no effect)).

What about the “R: Veronica persica, herbicidal effect grade” value (“R: Veronica persica” for short) (Veronica persica) of the same compound?
The value was 0 (Herbicidal ratio of 5% or lower (almost no effect)).

And the “H: Echinochloa crus-galli var. crus-galli, herbicidal effect grade” value [3]?
Its value is 4 (Herbicidal ratio of 70% or higher and lower than 90%).

What about the “f: beet, effect on crop grade” value (beet) of the same compound?
The value was 0 (Herbicidal ratio of 5% or lower (almost no effect)).

And the “d: soybean, effect on crop grade” value (soybean)?
The value was 0 (Herbicidal ratio of 5% or lower (almost no effect)).

And the “g: rapeseed, effect on crop grade” value (rapeseed)?
Its value is 0 (Herbicidal ratio of 5% or lower (almost no effect)).

What about the “herbicidal effect on H (Echinochloa crus-galli var. crus-galli), grade 0-5” value (from here on “herbicidal effect on H”) [4] of the same compound?
Its value is 3 (Herbicidal ratio of 40% or higher and lower than 70%).

What about the “P: Stellaria media, herbicidal effect grade” value (Stellaria media) of the same compound?
Its value is 0 (Herbicidal ratio of 5% or lower (almost no effect)).

And the “Herbicidal effect grade, B: Scirpus juncoides” value (Scirpus juncoides)?
Its value is 0 (Herbicidal ratio of 5% or lower (almost no effect)).

And the “Q: Galium spurium, herbicidal effect grade” value (shortened to “Q: Galium spurium”) (Galium spurium)?
The value was 0 (Herbicidal ratio of 5% or lower (almost no effect)).

What does the source list for `CCc1cc(C#C[Si](C)(C)C)cc(C)c1C1=C(O)CC(CC(C)=NOC)C1=O` (mixture of isomers) [6-008]?
N: Amaranthus retroflexus, herbicidal effect grade (Amaranthus retroflexus): 0 (Herbicidal ratio of 5% or lower (almost no effect)); e: wheat, effect on crop grade (wheat): 4 (Herbicidal ratio of 70% or higher and lower than 90%); K: Lolium multiflorum Lam., herbicidal effect grade (Lolium multiflorum Lam.): 3 (Herbicidal ratio of 40% or higher and lower than 70%); L: Apera spica-venti, herbicidal effect grade (Apera spica-venti [1]): 5 (Herbicidal ratio of 90% or more (almost completely withered)); L: Apera spica-venti, herbicidal effect grade (Apera spica-venti [2]): 3 (Herbicidal ratio of 40% or higher and lower than 70%); I: Avena fatua, herbicidal effect grade (Avena fatua): 0 (Herbicidal ratio of 5% or lower (almost no effect)); c: corn, effect on crop grade (corn): 3 (Herbicidal ratio of 40% or higher and lower than 70%); R: Veronica persica, herbicidal effect grade (Veronica persica): 0 (Herbicidal ratio of 5% or lower (almost no effect)); H: Echinochloa crus-galli var. crus-galli, herbicidal effect grade [3]: 5 (Herbicidal ratio of 90% or more (almost completely withered)); f: beet, effect on crop grade (beet): 0 (Herbicidal ratio of 5% or lower (almost no effect)); d: soybean, effect on crop grade (soybean): 0 (Herbicidal ratio of 5% or lower (almost no effect)); g: rapeseed, effect on crop grade (rapeseed): 0 (Herbicidal ratio of 5% or lower (almost no effect)); herbicidal effect on H (Echinochloa crus-galli var. crus-galli), grade 0-5 [4]: 5 (Herbicidal ratio of 90% or more (almost completely withered)); P: Stellaria media, herbicidal effect grade (Stellaria media): 0 (Herbicidal ratio of 5% or lower (almost no effect)); Herbicidal effect grade, B: Scirpus juncoides (Scirpus juncoides): 5 (Herbicidal ratio of 90% or more (almost completely withered)); Q: Galium spurium, herbicidal effect grade (Galium spurium): 0 (Herbicidal ratio of 5% or lower (almost no effect))

For `CCOC(=O)C(C(=O)CC1CC1)C1CC(O)=C(c2c(C)cc(C)cc2C)C1=O` (centres unmarked) [2-025], which “N: Amaranthus retroflexus” value (Amaranthus retroflexus) is on record?
The value was 0 (Herbicidal ratio of 5% or lower (almost no effect)).

What about the “e: wheat, effect on crop grade” value (wheat) of the same compound?
The value was 0 (Herbicidal ratio of 5% or lower (almost no effect)).

What about the “K: Lolium multiflorum Lam., herbicidal effect grade” value (Lolium multiflorum Lam.) of the same compound?
Its value is 5 (Herbicidal ratio of 90% or more (almost completely withered)).

And the “L: Apera spica-venti” value (Apera spica-venti [1])?
Its value is 0 (Herbicidal ratio of 5% or lower (almost no effect)).

And the “L: Apera spica-venti” value (Apera spica-venti [2])?
Its value is 3 (Herbicidal ratio of 40% or higher and lower than 70%).

What about the “I: Avena fatua, herbicidal effect grade” value (Avena fatua) of the same compound?
Its value is 0 (Herbicidal ratio of 5% or lower (almost no effect)).

What about the “c: corn, effect on crop grade” value (corn) of the same compound?
The value was 0 (Herbicidal ratio of 5% or lower (almost no effect)).

And the “R: Veronica persica” value (Veronica persica)?
The value was 0 (Herbicidal ratio of 5% or lower (almost no effect)).

What about the “H: Echinochloa crus-galli var. crus-galli, herbicidal effect grade” value [3] of the same compound?
The value was 4 (Herbicidal ratio of 70% or higher and lower than 90%).

What about the “f: beet, effect on crop grade” value (beet) of the same compound?
The value was 0 (Herbicidal ratio of 5% or lower (almost no effect)).

What about the “d: soybean, effect on crop grade” value (soybean) of the same compound?
The value was 0 (Herbicidal ratio of 5% or lower (almost no effect)).

And the “g: rapeseed, effect on crop grade” value (rapeseed)?
Its value is 3 (Herbicidal ratio of 40% or higher and lower than 70%).

And the “herbicidal effect on H” value [4]?
Its value is 3 (Herbicidal ratio of 40% or higher and lower than 70%).

What about the “P: Stellaria media, herbicidal effect grade” value (Stellaria media) of the same compound?
The value was 0 (Herbicidal ratio of 5% or lower (almost no effect)).

And the “Q: Galium spurium” value (Galium spurium)?
Its value is 0 (Herbicidal ratio of 5% or lower (almost no effect)).

With `Cc1cc(C)c(C2=C(O)CC(CC(=O)CC3CC3)C2=O)c(C)c1` (centres unmarked) [2-026] as the compound, how does the “N: Amaranthus retroflexus” value (Amaranthus retroflexus) read?
Its value is 0 (Herbicidal ratio of 5% or lower (almost no effect)).

What about the “e: wheat, effect on crop grade” value (wheat) of the same compound?
The value was 0 (Herbicidal ratio of 5% or lower (almost no effect)).

What about the “K: Lolium multiflorum Lam., herbicidal effect grade” value (Lolium multiflorum Lam.) of the same compound?
The value was 5 (Herbicidal ratio of 90% or more (almost completely withered)).

What about the “L: Apera spica-venti” value (Apera spica-venti [1]) of the same compound?
The value was 2 (Herbicidal ratio of 20% or higher and lower than 40%).

What about the “L: Apera spica-venti” value (Apera spica-venti [2]) of the same compound?
The value was 3 (Herbicidal ratio of 40% or higher and lower than 70%).

And the “I: Avena fatua, herbicidal effect grade” value (Avena fatua)?
The value was 4 (Herbicidal ratio of 70% or higher and lower than 90%).

What about the “c: corn, effect on crop grade” value (corn) of the same compound?
Its value is 1 (Herbicidal ratio of 5% or higher and lower than 20%).

And the “R: Veronica persica” value (Veronica persica)?
Its value is 0 (Herbicidal ratio of 5% or lower (almost no effect)).

And the “H: Echinochloa crus-galli var. crus-galli, herbicidal effect grade” value [3]?
Its value is 4 (Herbicidal ratio of 70% or higher and lower than 90%).

What about the “f: beet, effect on crop grade” value (beet) of the same compound?
The value was 0 (Herbicidal ratio of 5% or lower (almost no effect)).

What about the “d: soybean, effect on crop grade” value (soybean) of the same compound?
Its value is 0 (Herbicidal ratio of 5% or lower (almost no effect)).

What about the “g: rapeseed, effect on crop grade” value (rapeseed) of the same compound?
The value was 3 (Herbicidal ratio of 40% or higher and lower than 70%).

What about the “herbicidal effect on H” value [4] of the same compound?
The value was 5 (Herbicidal ratio of 90% or more (almost completely withered)).

And the “Herbicidal effect grade, B: Scirpus juncoides” value (Scirpus juncoides)?
Its value is 3 (Herbicidal ratio of 40% or higher and lower than 70%).

And the “Q: Galium spurium” value (Galium spurium)?
The value was 0 (Herbicidal ratio of 5% or lower (almost no effect)).

Which results are given for `CON=C(C)CC1CC(O)=C(c2c(C)cc(C(C)=O)cc2C)C1=O` (centres unmarked) [6-026]?
N: Amaranthus retroflexus, herbicidal effect grade (Amaranthus retroflexus): 0 (Herbicidal ratio of 5% or lower (almost no effect)); e: wheat, effect on crop grade (wheat): 0 (Herbicidal ratio of 5% or lower (almost no effect)); K: Lolium multiflorum Lam., herbicidal effect grade (Lolium multiflorum Lam.): 5 (Herbicidal ratio of 90% or more (almost completely withered)); L: Apera spica-venti, herbicidal effect grade (Apera spica-venti [1]): 0 (Herbicidal ratio of 5% or lower (almost no effect)); L: Apera spica-venti, herbicidal effect grade (Apera spica-venti [2]): 3 (Herbicidal ratio of 40% or higher and lower than 70%); I: Avena fatua, herbicidal effect grade (Avena fatua): 5 (Herbicidal ratio of 90% or more (almost completely withered)); c: corn, effect on crop grade (corn): 0 (Herbicidal ratio of 5% or lower (almost no effect)); R: Veronica persica, herbicidal effect grade (Veronica persica): 0 (Herbicidal ratio of 5% or lower (almost no effect)); H: Echinochloa crus-galli var. crus-galli, herbicidal effect grade [3]: 5 (Herbicidal ratio of 90% or more (almost completely withered)); f: beet, effect on crop grade (beet): 0 (Herbicidal ratio of 5% or lower (almost no effect)); d: soybean, effect on crop grade (soybean): 0 (Herbicidal ratio of 5% or lower (almost no effect)); g: rapeseed, effect on crop grade (rapeseed): 3 (Herbicidal ratio of 40% or higher and lower than 70%); herbicidal effect on H (Echinochloa crus-galli var. crus-galli), grade 0-5 [4]: 5 (Herbicidal ratio of 90% or more (almost completely withered)); P: Stellaria media, herbicidal effect grade (Stellaria media): 0 (Herbicidal ratio of 5% or lower (almost no effect)); Q: Galium spurium, herbicidal effect grade (Galium spurium): 0 (Herbicidal ratio of 5% or lower (almost no effect))
